These results are taken from PMC6133161, “Thiazoles with cyclopropyl fragment as antifungal, anticonvulsant, and anti-Toxoplasma gondii agents: synthesis, toxicity evaluation, and molecular docking study” (Medicinal Chemistry Research, 2018).

Converted amounts (≈) assume the structure as drawn.

For data set [1], the system named is PTZ-induced clonic seizures. Description: PTZ seizure test. Conditions: mice, ip, 60 min before PTZ 100 mg/kg sc; for latency time to first clonus / number of seizure episodes: vs vehicle. Type of data set: in vivo, mouse. The procedure:
For in vivo tests that assessed anticonvulsant properties of the test compounds 3a–3j adult male Albino Swiss (CD-1) mice weighing between 18 and 22 g were used. The animals were housed in groups of ten mice per cage at room temperature of 22 ± 2 °C, under light/dark (12:12) cycle. The animals had free access to food and tap water before the experiments. The ambient temperature of the experimental room and humidity (50 ± 10%) were kept consistent throughout all the tests. For behavioral experiments the animals were selected randomly. Each experimental group consisted of 4–8 animals/dose. The experiments were performed between 9 AM and 2 PM. Immediately after the in vivo assay the animals were euthanized by cervical dislocation. All procedures were approved by the Local Ethics Committee of the Jagiellonian University in Krakow (34/2018, 1.02.2018)) and the treatment of animals was in full accordance with ethical standards laid down in respective Polish and EU regulations (Directive No. 86/609/EEC). For in vivo tests the compounds 3a–3j were prepared in 1% Tween 80 solution (POCH, Poland) and they were administered by the intraperitoneal route. Control mice received 1% Tween 80. Pentylenetetrazole (PTZ), pilocarpine hydrochloride and scopolamine butylbromide were provided by Sigma Aldrich (Poland). For the tests they were prepared in 0.9% saline (Polfa Kutno, Poland). PTZ and pilocarpine were administered 60 min after the test compound or vehicle. To assess anticonvulsant properties of the test compounds anticonvulsant screening was conducted. Four assays were used: PTZ, maximal electroshock seizure (MES), 6-Hz and pilocarpine tests. In these assays the dose of 100 mg/kg was chosen as a starting dose. If it turned out to be effective, a lower dose (30 mg/kg) was also tested. The test was performed according to a method previously described (Sałat et al. [2005]). Clonic convulsions were induced by the subcutaneous (sc) administration of PTZ at a dose of 100 mg/kg. After PTZ injection, each mouse was immediately placed in a transparent Plexiglas cage (30 × 20 × 15 cm) and was observed during the next 30 min for the occurrence of clonic seizures. Clonic seizures were defined as clonus of the whole body lasting more than 3 s, with an accompanying loss of righting reflex. Latency time to first clonus and the number of seizure episodes were noted and compared between vehicle-treated and drug-treated groups.

The test system of data set [2] is Candida krusei ATCC 14243. Description: Broth microdilution MIC/MFC, reference strain. It is filed as cell-based. The settings on record: Pichia kudriavzevii, ATCC14243, C. krusei ATCC 14243; for MFC: read-out: MFC; for MIC: read-out: MIC. The source says: (§1) The examined compounds 3a–3j were screened in vitro for antibacterial and antifungal activities using the broth microdilution method according to European Committee on Antimicrobial Susceptibility Testing (EUCAST) (EUCAST [2003]) and Clinical and Laboratory Standards Institute guidelines (CLSI [2012]) against reference strains of microorganisms from American Type Culture Collection (ATCC), including fungi belonging to yeasts (Candida albicans ATCC 2091, Candida albicans ATCC 10231, Candida parapsilosis ATCC 22019 and Candida krusei ATCC 14243).
(§2) In the study of antifungal activity of the compounds 3a–3j, 15 clinical strains of different species of yeasts from Candida species, namely C. albicans, C. dubliniensis C. famata, C. inconspicua, C. krusei, C. tropicalis, C. glabrata, C. lambica, C. kefyr, C. lusitaniae, C. parapsilosis, C. guilliermondii, C. lusitaniae, C. pulcherrima and C. sake were also used. These fungi were isolated by the author (from Department of Pharmaceutical Microbiology of Medical University in Lublin, Poland) from different clinical materials, e.g., from upper respiratory tract of hospitalized patients including cancer patients (i.e., with non-small cell lung cancer or hematological malignancies). Some patients were after pre-operative or post-operative chemotherapy (treated with etoposide or cis-platin given in doses according to the standard procedures), patients with chronic hepatitis C (undergoing peginterferon and ribavirin therapy or without antiviral therapy), patients with diabetes, elderly people, aged of 65 years old or older, staying in close population, such as a care centre and people staying outside the home care. The Ethical Committee of the Medical University of Lublin approved the study protocol (No. KE-0254/75/2011). The isolates were identified by standard diagnostic methods—biochemical microtest, e.g., API 20C AUX, ID 32C, API Candida (bioMérieux) on the basis of assimilation of various substrates. All the used microbial cultures were first subcultured on nutrient agar or Sabouraud agar for bacteria and fungi, respectively. The RPMI 1640 with MOPS (for fungi) were inoculated with the suspensions of fungal species. Microbial suspensions were prepared in sterile saline (0.85% NaCl) with an optical density of 0.5 McFarland standard scale (Wiegand et al. [2008]). Samples containing examined compounds were dissolved in dimethyl sulfoxide (DMSO). Furthermore, fungal suspensions were put onto Petri dishes with solid media containing 2 mg/ml of the tested compounds followed incubation under appropriate conditions. The inhibition of microbial growth was judged by comparison with a control culture prepared without any sample tested. Nystatin (Sigma) was used as a reference antifungal compound. Subsequently MIC minimal inhibitory concentration (MIC) of the compounds was examined by the microdilution broth method, using their two-fold dilutions in RPMI 1640 broth with MOPS prepared in 96-well polystyrene plates. Final concentrations of the compounds ranged from 1000 to 0.0038 µg/ml. Microbial suspensions were prepared in sterile saline with an optical density of 0.5 McFarland standard. Next fungal suspension was added per each well containing broth and various concentrations of the examined compounds. After incubation, the MIC was assessed spectrophotometric as the lowest concentration of the samples showing complete fungal growth inhibition. Appropriate DMSO, growth and sterile controls were carried out. The medium with no tested substances was used as a control (Wiegand et al. [2008]). The minimal fungicidal concentration (MFC) are defined as the lowest concentration of the compounds that is required to kill a particular fungal species. MFC was determined by removing the culture using for MIC determinations from each well and spotting onto appropriate agar medium. The plates were incubated. The lowest compounds concentration with no visible growth observed was assessed as a fungicidal concentration. […]
In general terms: Broth dilution looks for growth in wells or tubes with falling amounts of substance.

In data set [3] the test system is Candida parapsilosis ATCC 22019. Description: Broth microdilution MIC/MFC, reference strain. It is filed as cell-based. Conditions: Lodderomyces parapsilosis, ATCC22019, C. parapsilosis ATCC 22019; for MFC: read-out: MFC; for MIC: read-out: MIC.
Source text: as §1, §2

Data set [4] relates to Candida albicans ATCC 10231. Description: Broth microdilution MIC/MFC, reference strain. Type of data set: cell-based. The settings on record: Candida albicans, ATCC10231, C. albicans ATCC 10231; for MFC: read-out: MFC; for MIC: read-out: MIC.
Source text: as §1, §2

Data set [5] relates to Candida albicans ATCC 2091. Description: Broth microdilution MIC/MFC, reference strain. Type of data set: cell-based. Conditions: Candida albicans, ATCC2091, C. albicans ATCC 2091; for MFC: read-out: MFC; for MIC: read-out: MIC.
Source text: as §1, §2

For `Clc1ccc(-c2csc(N/N=C/C3CC3)n2)cc1` [Compound 3c, (E)-4-(4-Chlorophenyl)-2-(2-(cyclopropylmethylene)hydrazinyl)thiazole], the melting point lay within 162 to 163 °C. For the same compound, in data set [1], the “anticonvulsant activity in PTZ model” value is “not effective”. For the same compound, in data set [2], the MFC was 0.98 µg/mL (≈ 3.53 µM) and the MIC turned out to be 0.12 µg/mL (≈ 0.432 µM). In addition, in data set [3], the MFC amounted to 1.95 µg/mL (≈ 7.02 µM) and the MIC was found to be 0.48 µg/mL (≈ 1.73 µM). Moreover, in data set [4], the MFC was 0.24 µg/mL (≈ 0.864 µM) and the MIC amounted to 0.12 µg/mL (≈ 0.432 µM). Moreover, in data set [5], the MFC stood at 0.48 µg/mL (≈ 1.73 µM) and the MIC worked out at 0.12 µg/mL (≈ 0.432 µM).
Consider `FC(F)(F)c1ccc(-c2csc(N/N=C/C3CC3)n2)cc1` [Compound 3e, (E)-2-(2-(Cyclopropylmethylene)hydrazinyl)-4-(4-(trifluoromethyl)phenyl)thiazole], for which the melting point fell in the range of 132 to 134 °C. Besides, in data set [1], the “anticonvulsant activity in PTZ model” value is “not effective”.
The compound `COc1ccc(-c2csc(N/N=C/C3CC3)n2)cc1` [Compound 3f, (E)-2-(2-(Cyclopropylmethylene)hydrazinyl)-4-(4-methoxyphenyl)thiazole] returned a melting point of 149 to 152 °C. Also, in data set [1], the “latency time to first clonus” value is listed as “significantly prolonged” and the “number of seizure episodes” value was “reduced”. Also, in data set [2], the MFC was 0.98 µg/mL (≈ 3.59 µM) and the MIC came out at 0.48 µg/mL (≈ 1.76 µM). In data set [3], the MFC is 3.91 µg/mL (≈ 14.3 µM) and the MIC is 0.48 µg/mL (≈ 1.76 µM). Moreover, in data set [4], the MFC came to 0.03 µg/mL (≈ 0.11 µM) and the MIC was found to be 0.015 µg/mL (≈ 0.0549 µM). For the same compound, in data set [5], the MFC was 1.95 µg/mL (≈ 7.13 µM) and the MIC amounted to 0.24 µg/mL (≈ 0.878 µM).
As for `[N-]=[N+]=Nc1ccc(-c2csc(N/N=C/C3CC3)n2)cc1` [Compound 3i, (E)-4-(4-Azidophenyl)-2-(2-(cyclopropylmethylene)hydrazinyl)thiazole], the melting point was in the range of 124 to 126 °C. Moreover, in data set [1], the “latency time to first clonus” value is reported as “significantly prolonged” and the “number of seizure episodes” value is reported as “reduced”. For the same compound, in data set [2], the MFC came out at 1.95 µg/mL (≈ 6.86 µM) and the MIC is 0.48 µg/mL (≈ 1.69 µM). In data set [3], the MFC is 7.81 µg/mL (≈ 27.5 µM) and the minimum inhibitory concentration (MIC) came to 0.98 µg/mL (≈ 3.45 µM). Moreover, in data set [4], the MFC is 1.95 µg/mL (≈ 6.86 µM) and the MIC was 0.24 µg/mL (≈ 0.844 µM). Besides, in data set [5], the MFC turned out to be 3.91 µg/mL (≈ 13.8 µM) and the minimal inhibitory concentration (MIC) came out at 0.98 µg/mL (≈ 3.45 µM).

The term melting point denotes the temperature of the solid-liquid transition. As a reminder, the MFC is the smallest concentration meeting the test's criterion for killing the fungus. For orientation: MIC means the least concentration at which growth counts as inhibited.
